Source: ChEMBL document CHEMBL1201862, “PubChem BioAssay data set” (2004)
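Step 1: Grow cells in 96-well plates. Step 2: Expose to compound for 48 hours at 5 concentrations. Step 3: Interpolate endpoints linearly; if unreached, use highest concentration. Abbreviation: GI50, concentration required for 50% inhibition of growth.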 Calls of active or inactive are those of the source. No stated cut-off is given here; in the data, active = GI50 up to about 1.1 µM and inactive = higher.

Key:
Assay in all cases: NCI anticancer screen, dose series, 48 h
[1] = tested on: SK-MEL-28
[2] = tested on: MCF7
[3] = tested on: U-251
[4] = tested on: SK-MEL-5
[5] = tested on: CCRF-CEM
[6] = tested on: SF-539
[7] = tested on: KM12
[8] = tested on: RXF 393
[9] = tested on: 786-0
[10] = tested on: IGROV-1
[11] = tested on: HCT-116
[12] = tested on: K562
[13] = tested on: CAKI-1
[14] = tested on: MDA-MB-435
[15] = tested on: LOX IMVI
[16] = tested on: NCI-H23
[17] = tested on: TK-10
[18] = tested on: PC-3
[19] = tested on: Hs-578T
[20] = tested on: SNB-75
[21] = tested on: NCI-H226
[22] = tested on: OVCAR-3
[23] = tested on: SR
[24] = tested on: A549
[25] = tested on: UACC-62
[26] = tested on: DU-145
[27] = tested on: NCI-H460
[28] = tested on: EKVX
[29] = tested on: MOLT-4
[30] = tested on: NCI-H522
[31] = tested on: HT-29
[32] = tested on: MDA-MB-231
[33] = tested on: NCI/ADR-RES
[34] = tested on: SN12C
[35] = tested on: OVCAR-8
[36] = tested on: HCC 2998
[37] = tested on: SW-620
[38] = tested on: BT-549
[39] = tested on: SF-268
[40] = tested on: OVCAR-4
[41] = tested on: MDA-N
[42] = tested on: SF-295
[43] = tested on: OVCAR-5
[44] = tested on: HL-60
[45] = tested on: HOP-62
[46] = tested on: T47D
[47] = tested on: HOP-92
[48] = tested on: ACHN
[49] = tested on: HCT-15
[50] = tested on: RPMI-8226
[51] = tested on: UO-31
[52] = tested on: A498
[53] = tested on: COLO 205
[54] = tested on: Malme-3M
[55] = tested on: UACC-257
[56] = tested on: SK-OV-3
[57] = tested on: SK-MEL-2
[58] = tested on: M14
[59] = tested on: SNB-19

Measured: GI50

O=c1c2cc(-c3ccccc3)sc2nc2n1N=C(c1ccccc1)CS2
inactive: [1] 23.6 µM | [2] 14.6 µM | [3] 19.7 µM | [4] 20.6 µM | [5] 57.7 µM | [6] 27.9 µM | [7] 31 µM | [8] > 10 µM | [9] 13.8 µM | [10] > 10 µM | [11] 34.8 µM | [12] > 100 µM | [13] 13.5 µM | [14] 37.5 µM | [15] 27.3 µM | [16] 76 µM | [17] 40.3 µM | [18] 28.9 µM | [19] 8.63 µM | [20] 19.1 µM | [21] 30.6 µM | [22] 18.2 µM | [23] > 100 µM | [24] 21.4 µM | [25] 12.4 µM | [26] 94.4 µM | [27] 25.1 µM | [28] 24.9 µM | [29] > 100 µM | [30] 22.4 µM | [31] > 10 µM | [32] 39.8 µM | [33] 13.4 µM | [34] 27 µM | [35] 32.1 µM | [36] 36.5 µM | [37] 69.5 µM | [38] 18.4 µM | [39] 24.3 µM | [40] 15.8 µM | [41] 34.9 µM | [42] 15.5 µM | [43] > 100 µM | [44] > 100 µM | [45] 5.02 µM | [46] 9.55 µM | [47] 12.1 µM | [48] 11.4 µM | [50] > 100 µM | [51] 62.2 µM | [52] 21.4 µM | [53] 79.3 µM | [54] 33.3 µM | [55] 24.1 µM | [56] 10.6 µM
84.3 µM: [49]

Cc1c(-c2ccccc2)c(C#N)c2nnn(-c3ccccc3)c(=O)n12
inactive: [1] > 100 µM | [2] 80.9 µM | [3] 48.8 µM | [4] 30.9 µM | [5] 34.8 µM | [6] > 100 µM | [7] 75.7 µM | [8] 81.7 µM | [9] 76.4 µM | [10] > 100 µM | [11] > 100 µM | [12] 40.6 µM | [13] > 100 µM | [14] > 100 µM | [15] 48.4 µM | [16] > 100 µM | [17] > 100 µM | [18] 78.9 µM | [57] > 100 µM | [19] > 100 µM | [20] > 100 µM | [21] > 100 µM | [22] 85.1 µM | [23] 33.8 µM | [24] 97.9 µM | [25] 92.5 µM | [26] > 100 µM | [27] 64.6 µM | [58] 67.1 µM | [28] > 100 µM | [30] 44.9 µM | [31] 29 µM | [32] > 100 µM | [33] > 100 µM | [34] > 100 µM | [35] > 100 µM | [36] 99.8 µM | [37] > 100 µM | [38] > 100 µM | [39] > 100 µM | [40] > 100 µM | [41] > 100 µM | [42] 43.7 µM | [43] > 100 µM | [44] 84.1 µM | [45] 44.2 µM | [46] 33 µM | [47] > 100 µM | [59] > 100 µM | [48] 76.4 µM | [50] > 100 µM | [51] > 100 µM | [52] 65.8 µM | [53] 54.1 µM | [54] 97.9 µM | [55] > 100 µM | [56] > 100 µM
36 µM: [49]

Cc1cc(S(=O)(=O)NC2=Nc3ccc(Cl)cc3C(c3ccccc3)N2)c(S)cc1Cl (configuration not stated)
inactive: [1] > 100 µM | [2] > 100 µM | [3] 33.8 µM | [4] > 100 µM | [5] 57.8 µM | [6] > 100 µM | [7] 92.9 µM | [8] > 100 µM | [9] > 100 µM | [10] > 100 µM | [11] 36.8 µM | [12] 85.5 µM | [13] > 100 µM | [14] > 100 µM | [15] 47.5 µM | [16] > 100 µM | [17] > 100 µM | [18] 1.84 µM | [19] > 100 µM | [20] > 100 µM | [21] 15.4 µM | [22] > 100 µM | [23] 14.3 µM | [24] 17.8 µM | [25] > 100 µM | [26] > 100 µM | [27] 8.79 µM | [58] > 100 µM | [28] > 100 µM | [29] 62.5 µM | [30] > 100 µM | [31] > 100 µM | [32] > 100 µM | [33] > 100 µM | [34] > 100 µM | [35] > 100 µM | [36] > 100 µM | [37] > 100 µM | [38] > 100 µM | [39] 9.12 µM | [40] 43.6 µM | [41] > 100 µM | [42] 20.9 µM | [43] > 100 µM | [44] > 100 µM | [45] 81.3 µM | [46] 9.02 µM | [47] > 100 µM | [59] 28.5 µM | [48] > 100 µM | [50] 97.1 µM | [51] 46 µM | [52] > 100 µM | [53] > 100 µM | [54] > 100 µM | [55] > 100 µM | [56] > 100 µM
67.1 µM: [49]
